Measurements as given in patent US10987430B2, “Di-substituted maleic amide linker for antibody drug conjugating and preparation method and use thereof” (Mabwell (shanghai) Bioscience Co., Ltd., priority 2016, dated 2021).

Legend:
[1] = system: human gastric cancer NCI-N87 subcutaneous xenografts; test: In vivo anti-tumor efficacy assay (FIG. 10), IV once a week, 2 times in total; design: species or system BALB/cA-nude mice; conditions: 1 mg/kg
Protocol: (§1) 6-7 weeks BALB/cA-nude mice (♀) were purchased from Shanghai Lingchang Biotechnology Co., Ltd. Production license number: SCXK (Shanghai) 2013-0018; animal certificate number: 2013001815683; and feeding environment: SPF level.
Those nude mice were subcutaneously inoculated with human gastric cancer NCI-N87 cells, and then randomly divided into groups (D0) when tumors grew to 100-250 mm^3. Tumor volume was measured 2-3 times a week, the mice were weighed, and corresponding data were recorded. The tumor volume (V) was calculated as: V=½×a×b^2; in which a and b represent length and width respectively. T/C (%)=(T−T0)/(C−C0)×100, in which T and C represent the tumor volumes at the end of the experiment; T0 and C0 represent the tumor volumes at the beginning of the experiment.

[2] = system: human gastric cancer NCI-N87 subcutaneous xenografts; test: In vivo anti-tumor efficacy assay (FIG. 24), IV on D 0; design: species or system BALB/cA-nude mice; conditions: 1.0 mg/kg
Protocol: as §1
Those nude mice were subcutaneously inoculated with 6×10^6 human gastric cancer NCI-N87 cells, and after the tumors grew to 100-250 mm^3, the mice were divided into groups (D0) according to tumor volumes. The mice were injected intravenously (IV), each with an administration volume 10 mL/kg; mice in vehicle control group was administered with the same volume of “vehicle” (physiological saline containing 0.1% BSA). Tumor volume was measured 2 times a week, the mice were weighed, and corresponding data were recorded.
The purpose of this experiment was to investigate the effect of the drugs on tumor growth using specific indicators T/C % or tumor growth inhibition value (TGI) (%).
Tumor diameters were measured twice a week with a vernier caliper. The tumor volume (V) was calculated as: V=½×a×b^2; in which a and b represent length and width respectively. T/C(%)=(T−T0)/(C−C0)×100, in which T and C represent the tumor volumes at the end of the experiment; T0 and C0 represent the tumor volumes at the beginning of the experiment. […]

[3] = system: NCI-N87 human gastric cancer cells; test: SRB cell proliferation assay in vitro; assay type: cell-based
Description: (§2) Sulforhodamine B (SRB)-based colorimetric method was used in this Example to evaluate the anti-proliferative effect of the drugs. SRB is a pink anionic dye which is easily soluble in water and can specifically bind to basic amino acids making up proteins in cells under an acidic condition. It provides an absorption peak at 510 nm, and the absorbance is linearly and positively correlated with the amount of cells. In this regard, the method can be used in a quantitative detection of cell number.
(§3) BT-474, SK-BR-3 and NCI-N87 cells in RPMI 1640 medium containing 10% fetal bovine serum, SKOV-3, Du-145, Panc-1, MCF-7 and MDA-MB-231 cells in DMEM containing 10% fetal bovine serum, and MDA-MB-468 cells in DMEM/F12 containing 10% fetal bovine serum were incubated to logarithmic growth phase in a 5% CO2 incubator at 37° C. The above cells in the logarithmic growth phase were inoculated into 96-well plates at a density of 2×10^3 to 9×10^3 cells per well, 100 μL per well, cultured for 24 hours and then different concentrations of drugs were added thereto for 5 days. Specifically, each drug was prepared into nine concentrations by diluting in 3, 4 or 5-fold, each concentration was set in duplicate wells, and corresponding concentration of vehicle control wells and medium control wells without cells were set too. At the end of drug action, culture solutions were decanted, and 100 μl of a pre-cooled trichloroacetic acid solution (30%, w/v) at 4° C. was added to each well and the cells were fixed at 4° C. for 1 hour. Subsequently, the cells were washed with deionized water for 5 times, and dried at room temperature, and then 100 μL of 0.4% (w/v) SRB dye (Sigma, prepared with 1% glacial acetic acid) was added to each well. After being incubated and stained at room temperature for 30 minutes, the cells were washed with 1% glacial acetic acid for 4 times to remove unbound dyes, and then dried at room temperature. Afterwards, 100 μL of 10 mM Tris solution was added per well.
as §2, with “SRB is a pink anionic dye which is easily soluble in water and can specifically bind to basic amino acids making up proteins in cells under an acidic condition.” left out
(§4) The above cells in the logarithmic growth phase were inoculated into 96-well plates at a density of 2×10^3 to 9×10^3 cells per well, 100 μL per well, cultured for 24 hours and then different concentrations of drugs were added thereto for 5 days. […] At the end of drug action, culture solutions were decanted, and 100 μl of a pre-cooled trichloroacetic acid solution (30%, w/v) at 4° C. was added to each well and the cells were fixed at 4° C. for 1 hour.

[4] = system: BT-474 human breast cancer cells; test: SRB cell proliferation assay in vitro; assay type: cell-based
Description: as §2, §3
as §2, with “SRB is a pink anionic dye which is easily soluble in water and can specifically bind to basic amino acids making up proteins in cells under an acidic condition.” left out
as §4

[5] = system: SK-BR-3 human breast cancer cells; test: SRB cell proliferation assay in vitro; assay type: cell-based; conditions: SK-BR-3, Her2 highly expressing, 5 days, FIG. 4
Description: as §2
BT-474, SK-BR-3 and NCI-N87 cells in RPMI 1640 medium containing 10% fetal bovine serum, SKOV-3, Du-145, Panc-1, MCF-7 and MDA-MB-231 cells in DMEM containing 10% fetal bovine serum, and MDA-MB-468 cells in DMEM/F12 containing 10% fetal bovine serum were incubated to logarithmic growth phase in a 5% CO2 incubator at 37° C. The above cells in the logarithmic growth phase were inoculated into 96-well plates at a density of 2×10^3 to 9×10^3 cells per well, 100 μL per well, cultured for 24 hours and then different concentrations of drugs were added thereto for 5 days. Specifically, each drug was prepared into nine concentrations by diluting in 3, 4 or 5-fold, each concentration was set in duplicate wells, and corresponding concentration of vehicle control wells and medium control wells without cells were set too. […]

[6] = system: 18 human tumor cell lines; conditions: cited from earlier work

For “P-mcVC-MMAE: comparison Pertuzumab conjugate; traditional mcVC-PAB conjugate with MMAE”, the “mice with tumors partially regressed” value [1] was 2/6, the tumor inhibition rate [1] was 94% and the “% T/C D 23” value [2] was 17%. The “% TGI D 23” value [2] was 83%, the “Mean tumor volume (mm3) D 23” value [2] was 194.6 mm3 and the Partial regression ([2]; number of mice, 6 per group) was 3. The complete regression ([2]; number of mice, 6 per group) was 0, the “inhibition of tumor cell proliferation” value ([3]; NCI-N87, Her2 highly expressing, 5 days, FIG. 6, FIG. 9-1) was “significant inhibition of tumor cell proliferation” and the “inhibition of tumor cell proliferation” value ([4]; BT-474, Her2 highly expressing, 5 days, FIG. 5) was “significant inhibition of tumor cell proliferation”. For the same substance, the “inhibition of tumor cell proliferation” value [5] was “significant inhibition of tumor cell proliferation”.
For “Pertuzumab: HER2 antibody, naked antibody”, the IC50 ([3]; NCI-N87, 120 h) was >10 µg/mL and the IC50 ([4]; BT-474, 120 h) was >10 µg/mL.
In the case of Taltobulin, the IC50 [6] is listed as 2.5 nM.
